Laboratory results reported in the NIST ThermoML archive (doi:10.1016/j.jct.2008.05.012).
Numbers after ± are expanded uncertainties.

Details: Crystal; Heating/Cooling curves

Compound	Normal melting temperature
CCC1COC(=O)O1 (stereo unspecified) [1,2-butylene carbonate]	-52.81 ± 1.2 °C
COCCOC [1,2-dimethoxyethane]	-69.74 ± 0.21 °C
C1COCCO1 [1,4-dioxane]	11.33 ± 0.41 °C
CCn1cc[n+](C)c1.O=S(=O)([O-])C(F)(F)F [1-ethyl-3-methylimidazolium trifluoromethanesulfonate]	-10.92 ± 0.6 °C
COCCC#N [3-methoxypropanenitrile]	-63.62 ± 0.53 °C
[2H]C([2H])([2H])S(=O)C([2H])([2H])[2H] [(methyl sulfoxide)-d6]	20.2 ± 0.21 °C
CC#N [acetonitrile]	-44.08 ± 0.41 °C
CCOC(=O)OCC [diethyl carbonate]	-77.29 ± 0.6 °C
C[N+](=O)[O-] [nitromethane]	-29.79 ± 0.41 °C
O=C1CCCO1 [γ-butyrolactone]	-44.71 ± 0.21 °C

The remaining lines, values ahead:

Normal melting temperature	Compound
3.91 ± 0.6 °C	COC(=O)OC [dimethyl carbonate]
17.80 ± 2 °C	C[S+](C)[O-] [dimethyl sulfoxide]
-55.01 ± 0.41 °C	CCOC(=O)OC [ethyl methyl carbonate]
-73.44 ± 0.09 °C	CCOC(=O)CC [ethyl propanoate]
35.38 ± 0.21 °C	O=C1OCCO1 [ethylene carbonate]
12.47 ± 0.21 °C	CCCCCCCC[N+](C)(CCCCCCCC)CCCCCCCC.O=C([O-])C(F)(F)F [methyltrioctylammonium trifluoroacetate]
